Reference: paper PMC3733984, “Tylophorine, a phenanthraindolizidine alkaloid isolated from Tylophora indica exerts antiangiogenic and antitumor activity by targeting vascular endothelial growth factor receptor 2–mediated angiogenesis” (Molecular Cancer, 2013)

Target: VEGFR2 (KDR/Flk-1) (Homo sapiens, UniProt P35968)
Assay: in vitro HTScan VEGFR2 kinase assay, colorimetric ELISA detection ([…] ATP)
Type: biochemical

VEGFR2 (KDR/Flk-1), sequence (P35968 20-1356): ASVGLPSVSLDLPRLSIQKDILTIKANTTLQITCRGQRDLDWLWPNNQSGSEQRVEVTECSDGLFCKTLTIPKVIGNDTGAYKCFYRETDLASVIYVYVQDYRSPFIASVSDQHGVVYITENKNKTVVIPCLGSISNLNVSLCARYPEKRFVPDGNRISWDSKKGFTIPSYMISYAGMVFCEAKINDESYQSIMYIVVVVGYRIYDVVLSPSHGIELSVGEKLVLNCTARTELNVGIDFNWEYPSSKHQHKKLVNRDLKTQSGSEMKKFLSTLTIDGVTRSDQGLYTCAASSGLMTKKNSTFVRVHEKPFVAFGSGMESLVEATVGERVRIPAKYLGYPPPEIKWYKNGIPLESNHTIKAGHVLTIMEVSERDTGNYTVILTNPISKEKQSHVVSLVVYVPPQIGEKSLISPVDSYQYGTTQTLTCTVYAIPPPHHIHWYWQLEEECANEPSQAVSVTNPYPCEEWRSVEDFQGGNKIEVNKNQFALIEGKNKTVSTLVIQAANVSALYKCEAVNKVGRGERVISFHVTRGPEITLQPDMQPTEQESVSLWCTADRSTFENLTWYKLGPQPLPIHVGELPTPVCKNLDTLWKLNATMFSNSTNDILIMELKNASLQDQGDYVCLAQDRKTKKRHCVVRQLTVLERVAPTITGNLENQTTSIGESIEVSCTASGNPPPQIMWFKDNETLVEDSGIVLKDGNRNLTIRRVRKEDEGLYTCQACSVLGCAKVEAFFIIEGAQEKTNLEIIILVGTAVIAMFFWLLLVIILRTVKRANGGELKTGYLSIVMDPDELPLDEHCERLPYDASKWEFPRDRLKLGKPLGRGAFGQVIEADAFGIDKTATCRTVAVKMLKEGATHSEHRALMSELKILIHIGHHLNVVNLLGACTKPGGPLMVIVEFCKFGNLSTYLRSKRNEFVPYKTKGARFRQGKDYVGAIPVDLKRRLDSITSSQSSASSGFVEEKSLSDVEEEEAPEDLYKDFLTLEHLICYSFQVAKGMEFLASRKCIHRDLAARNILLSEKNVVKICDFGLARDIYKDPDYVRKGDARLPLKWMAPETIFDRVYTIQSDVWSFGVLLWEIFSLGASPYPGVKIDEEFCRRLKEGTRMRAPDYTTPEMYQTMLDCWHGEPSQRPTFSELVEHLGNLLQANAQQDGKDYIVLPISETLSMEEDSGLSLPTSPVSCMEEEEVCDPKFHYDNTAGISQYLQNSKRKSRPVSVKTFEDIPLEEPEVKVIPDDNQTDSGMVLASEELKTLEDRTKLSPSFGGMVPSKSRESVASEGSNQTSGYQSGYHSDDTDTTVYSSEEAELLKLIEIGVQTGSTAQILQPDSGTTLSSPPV

SMILES: COc1cc2c3c(c4cc(OC)c(OC)cc4c2cc1OC)CN1CCC[C@@H]1C3 [Tylophorine]
- IC50: ~9.2 µM
